Measured values as given in patent US6013649A, “Thiol sulfone metalloprotease inhibitors” (Monsanto Company, priority 1997, dated 2000).

Legend:
[1] = target: T1, hMMP 1 (Homo sapiens, UniProt P03956); assay: In vitro metalloprotease inhibition, fluorogenic peptide substrate (recombinant human MMP-1, APMA activated); format: biochemical; settings: human MMP-1, room temperature, pH 7.5, 4 μM substrate
T1 construct: host or cells: transfected HT-1080 cells
T1 sequence (P03956 100-469): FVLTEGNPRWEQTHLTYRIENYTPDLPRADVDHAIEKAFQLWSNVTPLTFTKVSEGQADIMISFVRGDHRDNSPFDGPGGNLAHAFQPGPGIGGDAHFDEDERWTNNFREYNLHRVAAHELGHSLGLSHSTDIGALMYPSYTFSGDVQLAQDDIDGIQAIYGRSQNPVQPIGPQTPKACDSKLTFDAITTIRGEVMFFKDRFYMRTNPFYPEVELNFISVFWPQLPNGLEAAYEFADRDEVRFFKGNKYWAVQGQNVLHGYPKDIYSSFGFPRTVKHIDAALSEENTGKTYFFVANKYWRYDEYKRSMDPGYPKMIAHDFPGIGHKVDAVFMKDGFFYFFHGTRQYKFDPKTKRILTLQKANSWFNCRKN
Protocol: (§1) Briefly, 4-aminophenylmercuric acetate (APMA) or trypsin activated MMPs were incubated with various concentrations of the inhibitor compound at room temperature for 5 minutes (0.02% 2-mercaptoethanol added to buffer for thiol compounds with 5 minutes or overnight incubation).
(§2) More specifically, recombinant human MMP-13 and MMP-1 enzymes were prepared in laboratories of the assignee. MMP-13 was expressed in baculovirus as a proenzyme, and purified first over a heparin agarose column and then over a chelating zinc chloride column. The proenzyme was activated by APMA for use in the assay. MMP-1 expressed in transfected HT-1080 cells was provided by Dr. Howard Welgus of Washington University, St. Louis, Mo. The enzyme was also activated using APMA and was then purified over a hydroxamic acid column.
(§3) The enzyme substrate is a methoxycoumarin-containing polypeptide having the following sequence:
(§4) MCA-ProLeuGlyLeuDpaAlaArgNH^2, wherein MCA is methoxycoumarin and Dpa is 3-(2,4--dinitrophenyl)-L-2,3-diaminopropionyl alanine.
(§5) Assays were carried out at room temperature, and dimethyl sulfoxide (DMSO) at a final concentration of 1 percent was used to dissolve inhibitor compound.
(§6) The assayed inhibitor compound in DMSO/buffer solution was compared to an equal amount of DMSO/buffer with no inhibitor as control using Microfluor™ White Plates (Dynatech). The inhibitor or control solution was maintained in the plate for 10 minutes and the substrate was added to provide a final concentration of 4 μM.
(§7) Inhibition was measured as a reduction in fluorescent intensity as a function of inhibitor concentration, using a Perkin Elmer L550 plate reader. The IC50 values were calculated from those values.

[2] = target: T2, hMMP 13 (Homo sapiens, UniProt P45452); assay: In vitro metalloprotease inhibition, fluorogenic peptide substrate (recombinant human MMP-13, APMA activated); format: biochemical; settings: recombinant human MMP-13, room temperature, pH 7.5, 4 μM substrate
T2 construct: made in house
Protocol: as §1, §2, §3, §4, §5, §6, §7

[3] = test system: neovascularization of the corneal stroma; assay: In vivo angiogenesis assay (corneal micropocket assay, bFGF pellet); design: species or system mouse (C57Bl/6 female); settings: 50 mg/kg bid, po, day five, mouse cornea
Protocol: The study of angiogenesis depends on a reliable and reproducible model for the stimulation and inhibition of a neovascular response. The corneal micropocket assay provides such a model of angiogenesis in the cornea of a mouse. See, A Model of Angiogenesis in the Mouse Cornea; Kenyon, BM, et al., Investigative Ophthalmology & Visual Science, July 1996, Vol. 37, No. 8.
In this assay, uniformly sized Hydron™ pellets containing bFGF and sucralfate were prepared and surgically implanted into the stroma mouse cornea adjacent to the temporal limbus. […]
Mice were dosed on a daily basis for the duration of the assay. […] At day five, the degree of angiogenic inhibition was scored by viewing the neovascular progression with a slit lamp microscope.
The mice were anesthetized and the studied eye was once again proptosed. The maximum vessel length of neovascularization, extending from the limbal vascular plexus toward the pellet was measured. In addition, the contiguous circumferential zone of neovascularization was measured as clock hours, where 30 degrees of arc equals one clock hour. The area of angiogenesis was calculated as follows. […]
The studied mice were thereafter compared to control mice and the difference in the area of neovascularization was recorded.

SMILES | IC50 [1] | IC50 [2] | inhibition (difference in area of neovascularization vs control mice) [3]
CCCCCCCCCC(CCS)S(=O)(=O)c1ccc(OC)cc1 (stereo not drawn) [Example 17, 3-[(4-methoxyphenyl)sulfonyl]-dodecane-1-thiol] | > 10 µM | 210 nM | –
COc1ccc(S(=O)(=O)CCC(S)c2ccccc2)cc1 (stereo not drawn) [Example 24, 3-[(4-methoxyphenyl)sulfonyl]-1-phenylpropane-1-thiol] | 3.5 µM | 48 nM | –
CC(C)(C)OC(=O)COc1ccc(S(=O)(=O)CCCS)cc1 [Example 5] | > 10 µM | 400 nM | –
COc1ccc(S(=O)(=O)CCCCS)cc1 [Example 25, 4-[(4--methoxyphenyl)sulfonyl]butane-1-thiol] | > 10 µM | 700 nM | –
COC(=O)C(S)CCS(=O)(=O)c1ccc(OC)cc1 (racemic) [Example 10, (R,S)-Methyl-4-[(4-methoxyphenyl)sulfonyl]-2-mercaptobutanoate] | 4 µM | 15 nM | –
COc1ccc(S(=O)(=O)CCS)cc1 [Example 34, 1-[(4-methoxyphenyl)sulfonyl]ethane-2-thiol] | 8 µM | 200 nM | –
O=S(=O)(CCCS)c1ccccc1 [Example 30, 3-(phenylsulfonyl)propane-1-thiol] | > 10 µM | 900 nM | –
CCC(CCS)S(=O)(=O)c1ccc(OC)cc1 (stereo not drawn) [Example 16, 3-[(4-methoxyphenyl)sulfonyl]-pentane-1-thiol] | 0.6 µM | 4 nM | –
CNC(=O)CC(CCS)S(=O)(=O)c1ccc(OC)cc1 (stereo not drawn) [Example 31] | 4.75 µM | 35 nM | –
COc1ccc(S(=O)(=O)CC(C)(C)CS)cc1 [Example 15, 3-[(4-methoxyphenyl)sulfonyl]-2,2-dimethylpropane-1-thiol] | – | 700 nM | –
COc1ccc(S(=O)(=O)CC(C)S)cc1 (racemic) [Example 1, (R,S)1-[(4-methoxyphenyl)-sulfonyl]propane-2-thiol] | 4 µM | 400 nM | –
COc1ccc(S(=O)(=O)C(C)CCS)cc1 (stereo not drawn) [Example 19, 3-[(4-methoxyphenyl)sulfonyl]-butane-1-thiol] | 7 µM | 200 nM | –
COc1ccc(S(=O)(=O)C[C@@H](C)CS)cc1 [Example 3, 3-[(4-methoxyphenyl)sulfonyl]-2(S)-methylpropanethiol] | > 10 µM | – | –
O=S(=O)(CCCS)c1ccc(-c2ccccc2)cc1 [Example 37, 3-[(4-phenyl)phenylsulfonyl]propane-1-thiol] | > 10 µM | 170 nM | –
O=S(=O)(CCCS)c1ccc(Oc2ccccc2)cc1 [Example 36, 3-[(4-phenoxy)phenylsulfonyl]propane-1-thiol] | 2.4 µM | 0.6 nM | –
CCCOc1ccc(S(=O)(=O)CCCS)cc1 [Example 29, 3-[(4-propoxyphenyl)sulfonyl]propanethiol] | 10 µM | 55 nM | –
COc1ccc(S(=O)(=O)CCCS)cc1 [Example 13, 3-[(4-methoxyphenyl)sulfonyl]propane-1-thiol] | 8 µM | 70 nM | –

SMILES | IC50 [1] | IC50 [2] | inhibition (difference in area of neovascularization vs control mice) [3]
COc1ccc(S(=O)(=O)CC(CS)NC(=O)CNC(=O)OCc2ccccc2)cc1 (racemic) [Example 33, 2-R,S-(N-carbobenzyloxy-glycyl)amino-3-(4-methoxybenzenesulfonyl)propanethiol] | 0.9 µM | 42 nM | –
O=C(O)COc1ccc(S(=O)(=O)CCCS)cc1 [Example 6] | > 10 µM | > 10000 nM | –
O=C(NCCN1CCOCC1)C(S)CCS(=O)(=O)c1ccc(Oc2ccccc2)cc1 (stereo not drawn) [Example 39] | 0.37 µM | 0.2 nM | 51%
CCCC(CCS)S(=O)(=O)c1ccc(OC)cc1 (stereo not drawn) [Example 20, 3-[(4-methoxyphenyl)sulfonyl]hexane-1-thiol] | 1.5 µM | 7 nM | –
O=S(=O)(c1ccc(Sc2ccccc2)cc1)[C@@H]1CCC[C@@H](S)C1 (relative stereo) [Example 38, (R,S)trans-3-[(phenylthio)phenylsulfonyl]cyclohexanethiol] | > 10 µM | – | –
CCCCCC(CCS)S(=O)(=O)c1ccc(OC)cc1 (stereo not drawn) [Example 22, 3-[(4-methoxyphenyl)sulfonyl]-octane-1-thiol] | 1.1 µM | 0.5 nM | –
COc1ccc(S(=O)(=O)C2CCC(S)C2)cc1 (stereo not drawn) [Example 9] | – | 500 nM | –
CCCC[C@]1(S(=O)(=O)c2ccc(OC)cc2)CCC[C@@H](S)C1 [Example 8, (R,S)3-butyl-3-[(4-methoxyphenyl)sulfonyl]cyclohexanethiol] | > 10 µM | 1300 nM | –
COc1ccc(S(=O)(=O)CCC(C)S)cc1 (racemic) [Example 2, (R,S)-4-[(4-methoxyphenyl)-sulfonyl]butane-2-thiol] | 8 µM | 33 nM | –
COc1ccc(CS(=O)(=O)CCCS)cc1 [Example 11, (R,S)-3-[(4-methoxybenzyl)-sulfonyl]propane thiol] | > 10 µM | > 10000 nM | –
COc1ccc(S(=O)(=O)CC(CS)NC(C)=O)cc1 (stereo not drawn) [Example 32, N-[1-(mercaptomethyl)-2-[(4-methoxyphenyl)sulfonyl)ethyl)acetamide] | 4 µM | 70 nM | –
CCCCOc1ccc(S(=O)(=O)C(CCS)Cc2ccccc2)cc1 (stereo not drawn) [Example 28, 3-[(4-butoxyphenyl)sulfonyl]-4-phenylbutane-1-thiol] | 9 µM | 1.5 nM | –
COc1ccc(S(=O)(=O)C[C@H](C)CS)cc1 [Example 14, 3-[(4-methoxyphenyl)sulfonyl]-2R-methylpropane-1-thiol] | 6.5 µM | 190 nM | –
O=S(=O)(CCCS)c1ccc(OCCCc2ccccc2)cc1 [Example 4, 3-[(4-{3-phenylpropyloxy)phenyl}sulfonyl]-propanethiol] | > 10 µM | 1000 nM | –
COc1ccc(S(=O)(=O)[C@@H]2CCC[C@@H](S)C2)cc1 (relative stereo) [Example 7, (R,S)trans-3-[(4-methoxyphenyl)sulfonyl]cyclohexanethiol] | 1 µM | – | –
CCCCOc1ccc(S(=O)(=O)CCCS)cc1 [Example 27, 3-[(4-butoxyphenyl)sulfonyl]propane-1-thiol] | > 10 µM | 40 nM | –
COc1ccc(S(=O)(=O)C(CCS)Cc2ccccc2)cc1 (stereo not drawn) [Example 18, 3-[(4-methoxyphenyl)sulfonyl]-4-phenylbutane-1-thiol] | 0.06 µM | – | –
